This is an account of results in PMC10291552, “Computational Design, Synthesis, and Biological Evaluation of Diimidazole Analogues Endowed with Dual PCSK9/HMG-CoAR-Inhibiting Activity” (Journal of Medicinal Chemistry, 2023).

One assay deals with T1, PCSK9/LDLR (Homo sapiens, UniProt Q8NBP7).
T1 construct: purchased CircuLex (CycLex Co., Nagano, Japan)
The assay is described as follows: In vitro PCSK9-LDLR binding assay (CircuLex/CycLex kit). The note with it: for IC50: mean ± SD, three independent experiments, Hill slope fixed at −1. As to the method:
Diimidazole analogues (0.1–1 × 10^6 nM) were tested using the in vitro PCSK9-LDLR binding assay (CycLex Co., Nagano, Japan) following the manufacturer’s instructions and with the conditions already optimized.[15] Briefly, the plates were pre-coated with a recombinant LDLR-AB domain containing the binding site of PCSK9. Before starting the assay, the tested analogues and/or the vehicle in DMSO were sonicated at 37 °C, diluted in the reaction buffer, and added in microcentrifuge tubes. Afterward, the reaction mixtures were added in each well of the microplate, and the reaction was started by adding His-tagged PCSK9 solution (3 μL). The microplate was allowed to incubate for 2 h at room-temperature (RT) shaking at 300 rpm on an orbital microplate shaker. Subsequently, the wells were washed 4 times with the wash buffer. After the last wash, the biotinylated anti-His-tag monoclonal antibody (100 μL) was added and incubated at RT for 1 h shaking at 300 rpm. After incubation, the wells were washed 4 times with wash buffer. After the last wash, 100 μL of HRP-conjugated streptavidin were added, and the plate was incubated for 20 min at RT. After incubation, the wells were washed 4 times with wash buffer. Finally, the substrate reagent (tetra-methylbenzidine) was added, and the plate was incubated for 10 min at RT shaking at ca. 300 rpm. The reaction was stopped with 2.0 M sulfuric acid, and the absorbance at 450 nm was measured using a Synergy H1 fluorescent plate reader (Winooski, VT, USA).
All the data sets were checked for normal distribution by D’Agostino and Pearson tests. Since they are all normally disturbed with p values of […], we proceeded with statistical analyses of one-way ANOVA followed by Tukey’s post hoc test using Graphpad Prism 9 (San Diego, CA, USA). Values were reported as means ± s.d.; p values of <0.05 were considered to be significant. The IC50 values of samples inhibiting PCSK9-LDLR binding were evaluated by using the log(inhibitor) vs response model of GraphPad Prism 9 (San Diego, CA, USA). This model assumes that the dose–response curves has a standard slope, equal to a Hill slope (or slope factor) of −1.0. This is the slope expected when a ligand binds to a receptor following the law of mass action and is the slope expected of a dose–response curve when the second messenger created by receptor stimulation binds to its receptor by the law of mass action (https://graphpad.com/guides/prism/latest/curvefitting/reg_dr_inhibit.htm).

In another assay the test system is HepG2 cells. Put plainly: Fluorescent LDL uptake by HepG2 cells in the presence of PCSK9. The following applies: co-incubated with PCSK9 4 μg/mL, relative to untreated control cells. Type of assay: cell-based, human. On the procedure: HepG2 cells (3 × 10^4/well) were seeded in 96-well plates and kept in complete growth medium for 2 days before treatment. On the third day, the cells were washed with PBS and then starved overnight (O/N) in DMEM without FBS and antibiotics. After starvation, they were treated with 4.0 μg/mL PCSK9, 4.0 μg/mL PCSK9 + diimidazole analogues, and vehicle (H2O) for 2 h with at 37 °C under a 5% CO2 atmosphere. At the end of the treatment, the culture medium was replaced with 50 μL/well LDL-DyLight 550 working solution (Cayman Chemical Company, Ann Arbor, MI, USA) prepared in DMEM without FBS and antibiotics. The cells were additionally incubated for 2 h at 37 °C, and then the culture medium was aspirated and replaced with PBS (100 μL/well). The degree of LDL uptake was measured using a Synergy H1 fluorescent plate reader (Winooski, VT, USA) (excitation and emission wavelengths of 540 and 570 nm, respectively). Fluorescent LDL uptake was finally assessed following optimized protocol.[14]

The test system of another assay is platelet-rich plasma. Put plainly: Platelet aggregation by light transmission aggregometry (PCSK9-potentiated, epinephrine-induced). Type of assay: cell-based, human. The following applies: 10 nM preincubated with PCSK9 5 μg/mL; epinephrine 0.16 μM; n = 5 healthy donors. On the procedure: Whole blood (WB) was drawn with a 19-gauge needle without venous stasis into citrate (1/10 volume of 0.129 M sodium citrate), discarding the first 4 mL. Platelet-rich plasma (PRP) was obtained by centrifuging whole blood for 10 min at 100g without breaks at room temperature as previously described.[44]
Platelet function was assessed by light transmission aggregometry using PAP-8 aggregometer (BioData). Lag time and area under the curve (AUC) were used as the main parameters describing the kinetic of platelet aggregation as previously described.[3] Briefly, PRP was preincubated with PCSK9 (5 μg/mL, 2 min at 37 °C) followed by epinephrine (0.16 μM) stimulation. To test the effect of Dim16 on PCSK9-dependent platelet aggregation, PCSK9 was preincubated with Dim16 (10 nM) for 15 min at room temperature and then added to PRP.

T1 sequence (Q8NBP7 153-692): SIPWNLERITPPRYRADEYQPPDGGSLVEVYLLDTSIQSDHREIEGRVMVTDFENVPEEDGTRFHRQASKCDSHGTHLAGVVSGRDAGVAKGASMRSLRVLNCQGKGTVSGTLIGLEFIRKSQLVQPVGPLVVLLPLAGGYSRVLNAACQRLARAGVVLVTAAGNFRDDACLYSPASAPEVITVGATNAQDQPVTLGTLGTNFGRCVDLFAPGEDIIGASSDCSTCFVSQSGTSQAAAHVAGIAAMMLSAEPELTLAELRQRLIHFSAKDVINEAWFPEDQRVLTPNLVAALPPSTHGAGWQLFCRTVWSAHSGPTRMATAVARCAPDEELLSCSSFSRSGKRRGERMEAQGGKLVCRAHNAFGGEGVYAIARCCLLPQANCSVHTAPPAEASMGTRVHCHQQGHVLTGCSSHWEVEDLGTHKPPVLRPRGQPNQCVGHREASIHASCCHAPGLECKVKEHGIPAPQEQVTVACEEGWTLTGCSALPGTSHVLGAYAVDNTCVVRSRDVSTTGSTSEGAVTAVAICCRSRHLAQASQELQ
T1 sequence (Q8NBP7 31-152 limits assumed): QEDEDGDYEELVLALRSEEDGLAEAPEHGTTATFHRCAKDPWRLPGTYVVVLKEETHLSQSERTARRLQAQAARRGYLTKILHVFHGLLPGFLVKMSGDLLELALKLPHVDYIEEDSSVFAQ

For the compound `C#Cc1ncc(-c2ncc(-c3ccc4ccccc4c3)n2CCCC(C)(C)C)n1CCCCCNC` [Dim3, 5-(1-(4,4-Dimethylpentyl)-2′-ethynyl-5-(naphthalen-2-yl)-1H,3′H-[2,4′-biimidazol]-3′-yl)-N-methylpentan-1-amine], the 50% inhibitory concentration (IC50) at PCSK9/LDLR worked out at 9 ± 10 nM. Besides, the LDL uptake with HepG2 cells (1 nM) came to 94.12 ± 10.95%; in the assay with HepG2 cells (10 nM), 103.47 ± 7.34%.

As to `CNCCCCCn1c(-c2ncc(-c3ccc4ccccc4c3)n2CCCC(C)(C)C)cnc1I` [Dim16, 5-(1-(4,4-Dimethylpentyl)-2′-iodo-5-(naphthalen-2-yl)-1H,3′H-[2,4′-biimidazol]-3′-yl)-N-methylpentan-1-amine], the half-maximal inhibitory concentration (IC50) at PCSK9/LDLR stood at 0.8 ± 1 nM. Also, the “PCSK9/LDLR PPI, fold more active than P5” value on PCSK9/LDLR (ratio versus P5) came out at 2000. The LDL uptake was 81.87 ± 7.45% in the assay with HepG2 cells (1 nM) and 136.47 ± 8.81% with HepG2 cells (10 nM). For the same compound, the “effect on PCSK9 potentiation of platelet aggregation (lag time, AUC)” value in the assay with platelet-rich plasma is given as “significantly prevented”.

The term IC50 denotes the concentration at which inhibition is half-maximal.
